Here are results for three compounds from US20230218710A1, “METHOD OF TREATING CORONAVIRUS INFECTIONS” (priority 2020, published 2023).

Marks after values point to notes of the source that are not given here.

The subject of test [1] is LPS-induced acute lung injury mouse model. Kind of test: LPS-induced acute lung injury model in mouse (Example 6). The class given is in vivo, mice. The conditions noted are these: 10 nmol/kg i.p.; for Mean (SEM) Lung Weight: normalized to body weight. As for the experimental part:
The effect of the peptides of the current invention on acute lung injury can be assessed in an LPS-induced acute lung injury mouse model by monitoring outcomes such as lung weight, fluid accumulation, cytokine secretion in blood or bronchoalveolar lavage fluid (BALF), neutrophil infiltration into lung tissues, and assessment of acute lung injury score by histopathology. Acute lung injury was induced in male C57BL/6 mice (6 to 8 weeks old) by intratracheal administration of 40 μL lipopolysaccharide (LPS) (Sigma Aldrich, St. Louis, Mo.) in PBS at 5 mg/kg. Control animals received intratracheal PBS alone. […] Treatments were administered 1 h prior to LPS for animals designated for sacrifice at 4 h after LPS, or at both 1 h prior to and 6 h after LPS for animals designated for sacrifice at 24 h after LPS. At 4 or 24 hours post LPS administration, tissues were harvested. Lungs were weighed, flushed with Hanks Buffer to provide bronchoalveolar lavage fluid (BALF). Lungs were fixed in 10% neutral buffered formalin (NBF) for histopathology. Tissue slides were stained with hematoxylin and eosin (H&E) and evaluated and scored with light microscopy of 5 representative microscopic fields (100× magnification) scoring on a 0-5 scale using standard methods (Matute-Bello G et al 2011. An Official American Thoracic Society Workshop Report: Features and Measurements of Experimental Acute Lung Injury in Animals. Am J Respir Cell Mol Biol 44:725-38). The average score for five fields was calculated for each animal. Levels of pro-inflammatory cytokines in BALF were determined using a meso scale discovery (MSD) system. Data for test peptides were compared to the vehicle control group. Lung weights were normalized to body weight.

The test system of test [2] is LPS-induced acute lung tissue damage. Particulars: animals; Petrescu et al. 2010; cited from earlier work.
Test [3] concerns LPS-induced tissue damage in the liver. The conditions noted are these: rats; Zhou et al. 2018; cited from earlier work.
A further test deals with T1, Apelin Receptor (APJ) (Homo sapiens, UniProt P35414).
T1 construct: host or cells: CHO-K1 AGTRL1 Gi cells
T1 sequence (P35414 1-380): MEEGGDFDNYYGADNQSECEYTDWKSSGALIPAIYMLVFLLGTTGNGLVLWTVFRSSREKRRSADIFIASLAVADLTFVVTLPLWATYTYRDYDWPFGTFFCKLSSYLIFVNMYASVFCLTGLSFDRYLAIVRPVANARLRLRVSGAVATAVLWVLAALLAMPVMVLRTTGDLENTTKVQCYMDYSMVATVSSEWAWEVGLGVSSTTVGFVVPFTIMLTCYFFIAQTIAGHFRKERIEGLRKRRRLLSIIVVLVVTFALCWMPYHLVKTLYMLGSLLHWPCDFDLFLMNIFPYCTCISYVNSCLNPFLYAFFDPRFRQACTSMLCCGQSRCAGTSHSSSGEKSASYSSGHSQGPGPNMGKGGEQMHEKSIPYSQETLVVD
Kind of test: Activation of Ras in cultured cells overexpressing APJ. Particulars: 50 μM peptide, 1 min; 100 nM Pyr-Apelin-13 = positive control. The class given is cell-based. Here is the method:
Peptides were initially prepared as 100× stocks in H2O. […] Following a 1 min incubation, the cells were placed on ice, the supernatant was removed, and washed twice with cold HBSS. The HBSS was removed and the cells were immediately lysed in 150 μl/well of lysis buffer included with Active Ras Detection kit (Cell Signaling Technology; Danvers, Mass.); lysis buffer was supplemented with 1 mM PMSF (Millipore-Sigma; Saint Louis, Mo.) and Halt Protease/Phosphatase Inhibitor Cocktail (Thermo-Fisher; Waltham, Mass.) prior to use. The wells were immediately scraped and lysates transferred to microfuge tubes. The samples were then placed on ice for 10 min. […] Visualization and quantification of Ras recovery (GTP-bound/active Ras) in samples were performed with Azure Biosystems C400 Imager and AzureSpot analysis software (Dublin, Calif.). […] Each data point represents the average of duplicate assays.

The mark [4] stands for this setting: histopathology, 0-5 scale, 24 h after LPS.

Regarding `CSCC[C@H](NC(=O)[C@@H]1CCCN1C(=O)CNC(=O)[C@H](CCCCN)NC(=O)[C@H](Cc1c[nH]cn1)NC(=O)[C@H](CO)NC(=O)[C@H](CC(C)C)NC(=O)[C@H](CCCNC(=N)N)NC(=O)[C@@H]1CCCN1C(=O)[C@H](CCCNC(=N)N)NC(=O)[C@@H](N)CCC(N)=O)C(=O)N1CCC[C@H]1C(=O)N[C@@H](Cc1ccccc1)C(=O)O` [Apelin-13], in test [1] (BALF, 4 h after LPS), the “Pro-inflammatory Cytokine Level IFNγ” value worked out at 0.04 pg/mL, the “Pro-inflammatory Cytokine Level IL-1β” value is 123 pg/mL, the “Pro-inflammatory Cytokine Level IL-6” value was found to be 4540 pg/mL and the “Pro-inflammatory Cytokine Level IL-17-A” value turned out to be 0.87 pg/mL. In test [1] (BALF, 4 h after LPS), the “Pro-inflammatory Cytokine Level IL-17-C” value was 1.84 pg/mL, the “Pro-inflammatory Cytokine Level IL-23” value came out at 0.68 pg/mL, the “Pro-inflammatory Cytokine Level KC/GRO” value is 3210 pg/mL and the “Pro-inflammatory Cytokine Level TNFα” value is listed as 15500 pg/mL. In test [1] (setting [4]), the “Mean (SEM) Alveolar Neutrophil Infiltration Score” value is 1.40 (0.21) and the “Mean (SEM) Interstitial Neutrophil Infiltration Score” value was 1.13 (0.11). For the same compound, in test [1] (histopathology, 24 h after LPS), the “Mean (SEM) Composite Lung Injury Score” value is on record as 2.58 (0.29). The “Mean (SEM) Lung Weight” value in test [1] (4 h after LPS) was 1.03 (0.03)** g. Also, the “Mean (SEM) Lung Weight” value in test [1] (24 h after LPS) is 1.32 (0.03)* g. Further, in test [2], the “Pulmonary vascular leakage resulting from LPS-induced acute lung tissue damage (in words)” value was “reduce pulmonary vascular leakage”. For the same compound, the “Tissue damage in the liver induced by LPS (in words)” value in test [3] is listed as “attenuated tissue damage in the liver”.
For the compound “(PEG12)KRRLLGLVFQSLCG(dA) [SEQ ID NO: 37 Acetate salt] (KRRLLGLVFQSLCGA; N-terminal PEG12, C-terminal D-Ala, acetate salt; (1)..(1) PEG12; (15)..(15) D-Ala)”, in the test with Apelin Receptor (APJ), the “GTP-Ras (% of Positive Control)” value is 79.2%.
The same measure, in the same setting: the figure for “(PEG12)KRRLLGLVFQSLCG(dA) [SEQ ID NO: 37 HCl salt] (KRRLLGLVFQSLCGA; N-terminal PEG12, C-terminal D-Ala, HCl salt; (1)..(1) PEG12; (15)..(15) D-Ala)” is 33.2%.
